PubChem BioAssay (NCI)
Several values for one entry are separate records, joined by “and”; a condition that tells them apart may be missing. Equal values may be shown once.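 How tested: cells in 96-well plates exposed to compound for 48 hours at five concentrations. GI50 is the concentration that inhibits growth by half. TGI: total growth inhibition.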

How the values were obtained:
Assay in all cases: growth of human tumour cells (NCI), 48 h
[1] = test system: A549 NSCLC
[2] = test system: BT-549 breast
[3] = test system: CCRF-CEM leukemia
[4] = test system: COLO 205 colon
[5] = test system: HL-60(TB) leukemia
[6] = test system: MDA-MB-231 breast
[7] = test system: NCI-H23 lung
[8] = test system: OVCAR-3 ovarian
[9] = test system: CAKI-1 renal
[10] = test system: K-562 leukemia

SMILES | GI50 [1] | GI50 [2] | GI50 [3] | TGI [3] | GI50 [4] | GI50 [5] | TGI [5] | GI50 [6] | GI50 [7] | GI50 [8] | TGI [1] [µM] | TGI [9] | TGI [4] | TGI [10] [µM] | TGI [7] | TGI [8] | TGI [2] [µM] | TGI [6] [µM] | GI50 [9] [µM] | GI50 [10] [µM]
C=CCN1CC2CON(C(=O)C(OC)(c3ccccc3)C(F)(F)F)C2C1C(C)C (centres undefined) | 34.6 µg/mL | 30.1 µg/mL | 15.2 µg/mL | 62 µg/mL | 26 µg/mL | 6.09 µg/mL | 23.3 µg/mL | 41.4 µg/mL | 37.4 µg/mL | 36.3 µg/mL | – | – | – | – | – | – | – | – | – | –
C=CCn1c2c(sc1=S)C(S)N=CN2 (centres undefined) | – | – | – | > 100 µM | – | – | > 100 µM | – | – | – | > 100 | > 100 µM | > 100 µM | > 100 | > 100 µM | > 100 µM | – | – | – | –
Cc1ccc(Nc2nnc(-c3ccc4c(c3)OCO4)o2)c(C)c1 | – | – | – | – | – | – | – | – | – | – | > 100 | > 100 µM | > 100 µM | > 100 | > 100 µM | > 100 µM | > 100 | > 100 | – | –
N#CC(C(=O)CCC(=O)Nc1cccc(C(F)(F)F)c1)c1ccc(Cl)cc1 (centres undefined) | – | – | – | > 100 µM | – | – | > 100 µM | – | – | – | > 100 | > 100 µM | > 100 µM | > 100 | > 100 µM | > 100 µM | – | – | – | –
CC(C)(C)OC(=O)N1N=NC2C1C1CC(OCc3ccccc3)(OCc3ccccc3)C2O1 (centres undefined) | – | – | – | 63.5 µM | – | – | 31.9 µM | – | – | – | > 100 | > 100 µM | > 100 µM | 63.6 | 49.2 µM | > 100 µM | – | – | – | –
O=C1CSC(c2ccc(-c3nc4ccccc4s3)cc2)=N1 | 43.9 µM | 36.2 µM | – | – | > 100 µM | 18.4 µM | > 100 µM | 24.1 µM | – | 16 µM | > 100 | > 100 µM | > 100 µM | 50.4 | – | 55 µM | 76.8 | > 100 | 17.4 | 16.7
CCOC(=O)Cn1c(=O)n(C)c(=O)c2c1ncn2Cc1ccccc1 | – | – | – | > 100 µM | – | – | – | – | – | – | > 100 | > 100 µM | > 100 µM | > 100 | > 100 µM | > 100 µM | – | – | – | –
O=C1C(=O)N(c2cc(Cl)ccc2Cl)C(=O)C(=O)C1c1nc2ccccc2o1 | – | – | – | > 100 µM | – | – | > 100 µM | – | – | – | > 100 | > 100 µM | > 100 µM | > 100 | > 100 µM | > 100 µM | – | – | – | –
CCN(CC)c1cc2oc3cc(N)cc(=N)c-3nc2cc1C | 3.63 µM | 10.6 µM | – | – | 1.9 µM | – | – | 6.04 µM | 2.11 µM | 1.78 µM | 18.3 | 6.78 µM | 3.95 µM | – | 17.9 µM | 5.63 µM | 27.4 | > 100 | 1.65 | –
COc1cc(C2C(C(=O)Nc3cc(F)c(F)cc3F)=C(C)NC(C)=C2C(=O)Nc2cc(F)c(F)cc2F)ccc1O | – | – | – | 45.6 µM | – | – | 40.7 µM | – | – | – | 95.8 | 42.8 µM | > 100 µM | 49.6 | 52.8 µM | 38 µM | – | – | – | –
Oc1ccc(Br)cc1C=Nc1ccc(N=Cc2cc(Br)ccc2O)cc1 | – | – | – | > 100 µM | – | – | > 100 µM | – | – | – | > 100 | > 100 µM | – | > 100 | > 100 µM | – | – | – | – | –
COC(=O)/C(=C\c1ccc(N(CCC#N)CCC#N)cc1)NC(=O)c1cc([N+](=O)[O-])ccc1Cl | – | – | – | > 100 µM | – | – | – | – | – | – | > 100 | > 100 µM | > 100 µM | > 100 | > 100 µM | > 100 µM | – | – | – | –
CCOc1ccccc1NC(=O)C(C#N)C1=C(Cl)C(=O)c2ccccc2C1=O (centres undefined) | – | – | 3.15 µM | – | 12.6 µM | 2.85 µM | – | – | – | 2 µM | 3.74 | 5 µM and 3.29 µM | 3.43 µM and 27.9 µM | – | 3.99 µM and 6.17 µM | 2.97 µM and 5.04 µM | – | – | 1.81 | 2.93
O=C(O)C12CC3(C(=O)O)CC(C(=O)O)(CC(C(=O)O)(C1)C3=O)C2=O | – | – | – | > 100 µM | – | – | – | – | – | – | > 100 | > 100 µM | > 100 µM | > 100 | > 100 µM | > 100 µM | > 100 | > 100 | – | –
OCC(O)CNc1ccnc2cc(Cl)ccc12 (centres undefined) | – | – | – | > 100 µM | – | – | > 100 µM | – | – | – | > 100 | > 100 µM | > 100 µM | > 100 | > 100 µM | > 100 µM | – | – | – | –
Cc1cccc(C)c1NC(=O)C(=O)CC(=O)c1cccc([N+](=O)[O-])c1 | – | – | – | > 100 µM | – | – | > 100 µM | – | – | – | > 100 | > 100 µM | > 100 µM | > 100 | > 100 µM | > 100 µM | – | – | – | –
Cc1cc(C(C)(C)C)cc(Cc2cc(C(C)(C)C)cc(Cc3cc(C(C)(C)C)cc(C)c3O)c2O)c1O | – | – | – | 9.04 µM | – | – | 12.5 µM | – | – | – | 18.7 | 25.6 µM | 29.7 µM | 16.4 | 21.7 µM | 16.5 µM | – | – | – | –
CCCCc1c2c(nc3c1CCC/C3=C\c1ccccc1)/C(=C/c1ccccc1)CCC2 | – | – | – | > 100 µM | – | – | > 100 µM | – | – | – | > 100 | – | > 100 µM | > 100 | > 100 µM | > 100 µM | – | – | – | –
CC(=O)OC1C2CCC1C1C2C2(Cl)C(Cl)=C(Cl)C1(Cl)C2(Cl)Cl (centres undefined) | – | – | – | – | – | – | – | – | – | – | 25.9 | 27 µM | 28.3 µM | – | 25.8 µM | 24 µM | – | – | – | –
COC1=C(Br)C(=O)c2nc(C)ccc2C1=O | – | – | – | – | – | – | – | – | – | – | 38.5 | 29.3 µM | 24.6 µM | > 27.8 | 27 µM | 19.5 µM | – | – | – | –
CCC(=O)Nc1ccc(N=NN(C)C)cc1 | – | – | – | – | – | – | > 100 µM | – | – | – | > 100 | – | > 100 µM | > 100 | > 100 µM | – | > 100 | > 100 | – | –
Nc1ccc2nc3n(c2c1)C(=O)c1ccccc1-3 | – | – | – | > 100 µM | – | – | > 100 µM | – | – | – | > 100 | > 100 µM | > 100 µM | > 100 | > 100 µM | > 100 µM | > 100 | – | – | –
COc1cc(C(=O)C/C(CCC(=O)Nc2ccc(Cl)cc2Cl)=N/NC(=O)C(=O)NN)ccc1O | – | – | – | > 100 µM | – | – | > 100 µM | – | – | – | > 100 | > 100 µM | > 100 µM | > 100 | > 100 µM | > 100 µM | – | – | – | –
O=S1(=O)OCCOS(=O)(=O)C1Cl | – | – | – | > 100 µM | – | – | > 100 µM | – | – | – | > 100 | > 100 µM | > 100 µM | > 100 | > 100 µM | > 100 µM | – | – | – | –
CC(=O)OCCOCNC(=S)N/N=C/c1ccc(Br)s1 | – | – | – | > 100 µM | – | – | > 40.2 µM | – | – | – | > 100 | – | > 100 µM | > 100 | > 100 µM | > 100 µM | – | – | – | –
